According to ChEMBL document CHEMBL1152085, “Novel 3-deoxy-3-descladinosyl-6-O-methyl erythromycin a analogues. Synthesis and in vitro activity” (1997):
Converted amounts (≈) assume the structure as drawn.

How the values were obtained:
Format in all cases: functional
Enterococcus faecium [1] = assay: Tested in vitro for minimum inhibitory concentration to produce antibacterial activity against Enterococcus faecium ATCC 8043
Enterococcus faecium [2] = assay: Tested in vitro for minimum inhibitory concentration to produce antibacterial activity against Enterococcus faecium ATCC 8043 in presence of erythromycin A
Escherichia coli [3] = assay: Tested in vitro for minimum inhibitory concentration to produce antibacterial activity against Escherichia coli JUHL
Escherichia coli [4] = assay: Tested in vitro for minimum inhibitory concentration to produce antibacterial activity against Escherichia coli JUHL in presence of erythromycin A
Escherichia coli [5] = assay: Tested in vitro for minimum inhibitory concentration to produce antibacterial activity against Escherichia coli SS
Escherichia coli [6] = assay: Tested in vitro for minimum inhibitory concentration to produce antibacterial activity against Escherichia coli SS in presence of erythromycin A
[7] = test system: Staphylococcus epidermidis; assay: Tested in vitro for minimum inhibitory concentration to produce antibacterial activity against Staphylococcus epidermidis 3519
[8] = test system: Staphylococcus epidermidis; assay: Tested in vitro for minimum inhibitory concentration to produce antibacterial activity against Staphylococcus epidermidis 3519 in presence of erythromycin A
Streptococcus pyogenes [9] = assay: Tested in vitro for minimum inhibitory concentration to produce antibacterial activity against Streptococcus pyogenes 930
Streptococcus pyogenes [10] = assay: Tested in vitro for minimum inhibitory concentration to produce antibacterial activity against Streptococcus pyogenes 930 in presence of erythromycin A
Streptococcus pyogenes [11] = assay: Tested in vitro for minimum inhibitory concentration to produce antibacterial activity against Streptococcus pyogenes EES61
Streptococcus pyogenes [12] = assay: Tested in vitro for minimum inhibitory concentration to produce antibacterial activity against Streptococcus pyogenes EES61 in presence of erythromycin A
Streptococcus pyogenes [13] = assay: Tested in vitro for minimum inhibitory concentration to produce antibacterial activity against Streptococcus pyogenes PIU 2548
Streptococcus pyogenes [14] = assay: Tested in vitro for minimum inhibitory concentration to produce antibacterial activity against Streptococcus pyogenes PIU 2548 in presence of erythromycin A
Streptococcus agalactiae [15] = assay: Tested in vitro for minimum inhibitory concentration to produce antibacterial activity against Streptococcus agalactiae CMX 508
Streptococcus agalactiae [16] = assay: Tested in vitro for minimum inhibitory concentration to produce antibacterial activity against Streptococcus agalactiae CMX 508 in presence of erythromycin A
Staphylococcus aureus [17] = assay: Tested in vitro for minimum inhibitory concentration to produce antibacterial activity against Staphylococcus aureus 1775
Staphylococcus aureus [18] = assay: Tested in vitro for minimum inhibitory concentration to produce antibacterial activity against Staphylococcus aureus 1775 in presence of erythromycin A
Staphylococcus aureus [19] = assay: Tested in vitro for minimum inhibitory concentration to produce antibacterial activity against Staphylococcus aureus A-5278
Staphylococcus aureus [20] = assay: Tested in vitro for minimum inhibitory concentration to produce antibacterial activity against Staphylococcus aureus A-5278 in presence of erythromycin A
Staphylococcus aureus [21] = assay: Tested in vitro for minimum inhibitory concentration to produce antibacterial activity against Staphylococcus aureus A5177
Staphylococcus aureus [22] = assay: Tested in vitro for minimum inhibitory concentration to produce antibacterial activity against Staphylococcus aureus A5177 in presence of erythromycin A
Staphylococcus aureus [23] = assay: Tested in vitro for minimum inhibitory concentration to produce antibacterial activity against Staphylococcus aureus ATCC 6538P
Staphylococcus aureus [24] = assay: Tested in vitro for minimum inhibitory concentration to produce antibacterial activity against Staphylococcus aureus ATCC 6538P in presence of erythromycin A
Staphylococcus aureus [25] = assay: Tested in vitro for minimum inhibitory concentration to produce antibacterial activity against Staphylococcus aureus CMX 553
Staphylococcus aureus [26] = assay: Tested in vitro for minimum inhibitory concentration to produce antibacterial activity against Staphylococcus aureus CMX 553 in presence of erythromycin A
Staphylococcus aureus [27] = assay: Tested in vitro for minimum inhibitory concentration to produce antibacterial activity against Staphylococcus aureus CMX 642A
Staphylococcus aureus [28] = assay: Tested in vitro for minimum inhibitory concentration to produce antibacterial activity against Staphylococcus aureus CMX 642A in presence of erythromycin A
Streptococcus equinus [29] = assay: Tested in vitro for minimum inhibitory concentration to produce antibacterial activity against Streptococcus bovis A-5169
Streptococcus equinus [30] = assay: Tested in vitro for minimum inhibitory concentration to produce antibacterial activity against Streptococcus bovis A-5169 in presence of erythromycin A
Staphylococcus aureus [31] = assay: Tested in vitro for minimum inhibitory concentration to produce antibacterial activity against Staphylococcus aureus NCTC-10649M
Staphylococcus aureus [32] = assay: Tested in vitro for minimum inhibitory concentration to produce antibacterial activity against Staphylococcus aureus NCTC-10649M in presence of erythromycin A

| MIC (Enterococcus faecium [1]) [µg/mL] | MIC (Enterococcus faecium [2]) [µg/mL] | MIC (Escherichia coli [3]) [µg/mL] | MIC (Escherichia coli [4]) [µg/mL] | MIC (Escherichia coli [5]) [µg/mL] | MIC (Escherichia coli [6]) [µg/mL] | MIC [7] [µg/mL] | MIC [8] [µg/mL] | MIC (Streptococcus pyogenes [9]) [µg/mL] | MIC (Streptococcus pyogenes [10]) [µg/mL] | MIC (Streptococcus pyogenes [11]) [µg/mL] | MIC (Streptococcus pyogenes [12]) [µg/mL] | MIC (Streptococcus pyogenes [13]) [µg/mL] | MIC (Streptococcus pyogenes [14]) [µg/mL] | MIC (Streptococcus agalactiae [15]) [µg/mL] | MIC (Streptococcus agalactiae [16]) [µg/mL] | MIC (Staphylococcus aureus [17]) [µg/mL] | MIC (Staphylococcus aureus [18]) [µg/mL] | MIC (Staphylococcus aureus [19]) [µg/mL] | MIC (Staphylococcus aureus [20]) [µg/mL] | Structure (SMILES) | also measured |
| --- | --- | --- | --- | --- | --- | --- | --- | --- | --- | --- | --- | --- | --- | --- | --- | --- | --- | --- | --- | --- | --- |
| 6.2 (≈ 9.12 µM) | 0.05 | > 100 | 50 | 0.39 (≈ 0.574 µM) | 0.2 | 25 (≈ 36.8 µM) | 0.2 | 100 (≈ 147 µM) | > 100 | 0.78 (≈ 1.15 µM) | 0.02 | 1.56 (≈ 2.29 µM) | 6.2 | 0.78 (≈ 1.15 µM) | 0.02 | > 100 | > 100 | > 100 | > 100 | CC[C@H]1OC(=O)[C@H](C)[C@@H](OC(=S)SC)[C@H](C)[C@@H](O[C@@H]2O[C@H](C)C[C@H](N(C)C)[C@H]2O)[C@](C)(OC)C[C@@H](C)C(=O)[C@H](C)[C@@H](O)[C@]1(C)O | MIC (Staphylococcus aureus [21]): 25 µg/mL (≈ 36.8 µM); MIC (Staphylococcus aureus [22]): 3.1 µg/mL; MIC (Staphylococcus aureus [23]): 25 µg/mL (≈ 36.8 µM); MIC (Staphylococcus aureus [24]): 0.2 µg/mL; MIC (Staphylococcus aureus [25]): 25 µg/mL (≈ 36.8 µM); MIC (Staphylococcus aureus [26]): 0.2 µg/mL; MIC (Staphylococcus aureus [27]): 25 µg/mL (≈ 36.8 µM); MIC (Staphylococcus aureus [28]): 0.2 µg/mL; MIC (Streptococcus equinus [29]): 0.39 µg/mL (≈ 0.574 µM); MIC (Streptococcus equinus [30]): 0.02 µg/mL; MIC (Staphylococcus aureus [31]): 12.5 µg/mL (≈ 18.4 µM); MIC (Staphylococcus aureus [32]): 0.2 µg/mL |
| 0.2 (≈ 0.34 µM) | 0.05 | > 100 | 50 | 0.39 (≈ 0.664 µM) | 0.2 | 0.39 (≈ 0.664 µM) | 0.2 | > 100 | > 100 | 0.1 (≈ 0.17 µM) | 0.05 | 0.3 (≈ 0.51 µM) | 3.1 | 0.2 (≈ 0.34 µM) | 0.05 | > 100 | > 100 | > 100 | > 100 | CC[C@H]1OC(=O)[C@H](C)C(=O)[C@H](C)[C@@H](O[C@@H]2O[C@H](C)C[C@H](N(C)C)[C@H]2O)[C@](C)(OC)C[C@@H](C)C(=O)[C@H](C)[C@@H](O)[C@]1(C)O | MIC (Staphylococcus aureus [21]): 0.2 µg/mL (≈ 0.34 µM); MIC (Staphylococcus aureus [22]): 1.56 µg/mL; MIC (Staphylococcus aureus [23]): 0.2 µg/mL (≈ 0.34 µM); MIC (Staphylococcus aureus [24]): 0.2 µg/mL; MIC (Staphylococcus aureus [25]): 0.2 µg/mL (≈ 0.34 µM); MIC (Staphylococcus aureus [26]): 0.2 µg/mL; MIC (Staphylococcus aureus [27]): 0.39 µg/mL (≈ 0.664 µM); MIC (Staphylococcus aureus [28]): 0.2 µg/mL; MIC (Streptococcus equinus [29]): 0.05 µg/mL (≈ 0.0851 µM); MIC (Streptococcus equinus [30]): 0.02 µg/mL; MIC (Staphylococcus aureus [31]): 0.1 µg/mL (≈ 0.17 µM); MIC (Staphylococcus aureus [32]): 0.2 µg/mL |
| 25 (≈ 40.5 µM) | 0.05 | > 100 | 25 | 3.1 (≈ 5.03 µM) | 0.2 | 25 (≈ 40.5 µM) | 0.39 | > 100 | > 100 | 3.1 (≈ 5.03 µM) | 0.02 | 25 (≈ 40.5 µM) | 3.1 | 3.1 (≈ 5.03 µM) | 0.1 | > 100 | > 100 | > 100 | > 100 | CCO/N=C1\[C@H](C)C[C@@](C)(OC)[C@H](O[C@@H]2O[C@H](C)C[C@H](N(C)C)[C@H]2O)[C@@H](C)C[C@@H](C)C(=O)O[C@H](CC)[C@@](C)(O)[C@H](O)[C@H]1C | MIC (Staphylococcus aureus [21]): 25 µg/mL (≈ 40.5 µM); MIC (Staphylococcus aureus [22]): 3.1 µg/mL; MIC (Staphylococcus aureus [23]): 25 µg/mL (≈ 40.5 µM); MIC (Staphylococcus aureus [24]): 0.39 µg/mL; MIC (Staphylococcus aureus [25]): 50 µg/mL (≈ 81.1 µM); MIC (Staphylococcus aureus [26]): 0.39 µg/mL; MIC (Staphylococcus aureus [27]): 50 µg/mL (≈ 81.1 µM); MIC (Staphylococcus aureus [28]): 0.39 µg/mL; MIC (Streptococcus equinus [29]): 3.1 µg/mL (≈ 5.03 µM); MIC (Streptococcus equinus [30]): 0.01 µg/mL; MIC (Staphylococcus aureus [31]): 12.5 µg/mL (≈ 20.3 µM); MIC (Staphylococcus aureus [32]): 0.39 µg/mL |
| 3.1 (≈ 5.27 µM) | 0.05 | > 100 | 50 | 0.78 (≈ 1.32 µM) | 0.2 | 12.5 (≈ 21.2 µM) | 0.2 | > 100 | > 100 | 0.78 (≈ 1.32 µM) | 0.01 | 1.56 (≈ 2.65 µM) | 6.2 | 0.78 (≈ 1.32 µM) | 0.01 | > 100 | > 100 | > 100 | > 100 | CC[C@H]1OC(=O)[C@H](C)C[C@H](C)[C@@H](O[C@@H]2O[C@H](C)C[C@H](N(C)C)[C@H]2O)[C@](C)(OC)C[C@@H](C)/C(=N\O)[C@H](C)[C@@H](O)[C@]1(C)O | MIC (Staphylococcus aureus [21]): 25 µg/mL (≈ 42.5 µM); MIC (Staphylococcus aureus [22]): 3.1 µg/mL; MIC (Staphylococcus aureus [23]): 12.5 µg/mL (≈ 21.2 µM); MIC (Staphylococcus aureus [24]): 0.2 µg/mL; MIC (Staphylococcus aureus [25]): 12.5 µg/mL (≈ 21.2 µM); MIC (Staphylococcus aureus [26]): 0.2 µg/mL; MIC (Staphylococcus aureus [27]): 12.5 µg/mL (≈ 21.2 µM); MIC (Staphylococcus aureus [28]): 0.2 µg/mL; MIC (Streptococcus equinus [29]): 0.78 µg/mL (≈ 1.32 µM); MIC (Streptococcus equinus [30]): 0.05 µg/mL; MIC (Staphylococcus aureus [31]): 12.5 µg/mL (≈ 21.2 µM); MIC (Staphylococcus aureus [32]): 0.2 µg/mL |
